Experimental data published in patent US12357620B2 (New York Medical College, priority 2019, dated 2025).
“Also recorded” adds a separate entry of the source.

Columns and labels:
serum LPS = experiment: Serum lipopolysaccharides (LPS), bacterial translocation, in SCD patients; format: in vivo, human; settings: all treated patients vs pre-treatment; to levels comparable to controls without SCD
intestinal microbiome = experiment: 16S rRNA analysis of stool specimens for changes in intestinal microbiome; format: in vivo, human; settings: during vs pre-rifaximin treatment
Description: Relative abundances were transformed with the additive log ratio (alr), prior to calculating the difference, to reduce the spurious correlations associated with compositional data. Positive differences signify increased abundance post treatment. Histograms represent the frequency of differences between during and pre-rifaximin treatment alr values, where an increase of abundance during treatment is indicated by a shift of the distribution towards the right.

patients with SCD [1] = experiment: Clinical trial NCT03719729: VOC episodes and days needing intravenous opioid analgesia; format: in vivo, human
Description: (§1) (ClinicalTrials.gov Identifier: NCT03719729). There were eight males and five females. Ten patients had HbSS, two HbSß^0thal, and one HbSC. Their median age was 29 years (range 24-56). The median number of VOC in the previous 12 months was 4.5 (range 2-13) and number of days needing intravenous opioid analgesia (IOA) was 25.5 days (range 8-198). In 12 of the 13 patients, the VOC was in the form of musculo-skeletal pain typical in distribution for the VOC that normally affected individual patients and in one patient, the VOC was predominantly in the form of recurrent priapism. Five of the patients were already taking hydroxyurea and none L-glutamine or on a transfusion program. Six patients were taking oral opioid at home for chronic pain. The study ran between November 2018 and early August 2019, covering the winter months when most of the patients reported having most frequent VOC. […] CANs were measured by multicolor flow cytometry. Neutrophils were gated by Gr-1^hi CD115^lo SSC^hi and CANs by CD62L^lo CXCR4^hi within the neutrophil population.
(§2) Twelve of the 13 patients accrued to the study were evaluable for response. […] The mean self-reported medication compliance of the intended doses was 86% (range 50-100). The median number of VOC during the study period decreased from the expected 2.25 (range 1-6.5) per 6 months to 1 per 6 months (range 0-4) (p=0.003) (FIG. 8). […] Their self-reported medication compliance was 100%. The median decrease in days needing IOA over the six-month study-period was 9 (range 1-55), and the median % reduction was 82 (range 20-100) (p=0.008) (FIG. 9). Total number of days needing IOA was reduced from the expected 254 in six months to 98 during the study period. […] Reported adverse events: 1 case of self-limiting probable viral gastroenteritis (culture negative, C. diff negative by PCR) and 2 cases of increased thirst. Slight nausea was common in the first week.

serum iFABP = experiment: Serum intestinal Fatty Acid Binding Protein (iFABP), intestinal injury, in SCD patients; format: in vivo, human; settings: 12 SCD patients following rifaximin; to levels comparable to controls without SCD
urinary 3-IS = experiment: Urinary 3-IS, total intestinal microbial load, in SCD patients; format: in vivo, human; settings: after being started on oral rifaximin
patients with SCD [2] = experiment: Quality of Life survey using the FANTLC questionnaire; format: in vivo, human
Description: Four aspects of QoL issues were examined: Physical well-being, Social well-being, Emotional well-being, and Functional well-being. The scores for response for each of the question were on a scale of 0-4 (0=not at all; 4=very much). As a group, the median score for response to the question “I have pain” decreased from 3.5 to 2 (p=0.08). When the two patients who reported only slight pain before the study (score of 0 or 1) were excluded from the analysis, the median score decreased from 4 to 3 (p=0.04). Changes in the functional well-being of the subjects was examined. […] However, when three subjects were excluded who reported excellent functional well-being even before the study (scores of 3 o 4 for all 7 questions) from the analysis, there was an improvement in the functional well-being of the 9 patients, with the median composite score increased from 14 to 16 (p=0.06).

[3] = test system: circulating aged neutrophils (CANs); experiment: Circulating aged neutrophils (CANs) by multicolor flow cytometry in SCD patients on rifaximin; format: in vivo, human
Description: as §1

Clostridium difficile = settings: cited from earlier work
patients with SCD [4] = experiment: Clinical trial: laboratory analyses, tolerability and adverse events; format: in vivo, human
Description: as §1, §2

serum CD62L = experiment: Serum CD62L, marker of neutrophil activation, in SCD patients; format: in vivo, human; settings: SCD subjects following rifaximin treatment

CO[C@H]1/C=C/O[C@@]2(C)Oc3c(C)c(O)c4c(O)c(c5c(nc6cc(C)ccn65)c4c3C2=O)NC(=O)/C(C)=C\C=C\[C@H](C)[C@H](O)[C@@H](C)[C@@H](O)[C@@H](C)[C@H](OC(C)=O)[C@@H]1C [rifaximin]
change in serum LPS levels (serum LPS): dropped significantly | abundance of Akkermansia in stool (intestinal microbiome): trend towards increased abundance | abundance of Bacteroides in stool (intestinal microbiome): increase in the abundance | abundance of Escherichia-Shigella in stool (intestinal microbiome): trend towards increased abundance | median number of VOC during the study period (patients with SCD [1]; 12 patients, six months of rifaximin, range 0-4, expected 2.25 (range 1-6.5) per 6 months, p=0.003): 1 per 6 months | total number of days needing IOA during the study period (patients with SCD [1]; expected 254 in six months): 98 days | response of the one patient whose VOC was predominantly priapism (patients with SCD [1]; self-reported medication compliance 100%): did not respond | median decrease in days needing IOA (patients with SCD [1]; six-month study period vs expected, range 1-55): 9 days | median % reduction in days needing IOA (patients with SCD [1]; six-month study period vs expected, range 20-100, p=0.008): 82% | change in serum iFABP (serum iFABP): dropped significantly | change in urinary 3-IS (urinary 3-IS): drops and drop | median composite score of functional well-being (patients with SCD [2]; 9 patients, three with excellent baseline excluded, before 14, p=0.06): 16 | median score to the question "I am enjoying the things I usually do for fun" (patients with SCD [2]; after three months of rifaximin, before 1, p=0.048): 2.5 | median score to the question "I am able to enjoy life" (patients with SCD [2]; after three months of rifaximin, before 2, p=0.026): 2.5 | functional well-being, as a group (patients with SCD [2]; following rifaximin): not any significant difference | emotional and social well-being (patients with SCD [2]; following rifaximin therapy): No significant change | median score for response to the question "I have pain" (patients with SCD [2]; scale 0-4, as a group, before rifaximin 3.5, p=0.08): 2 | median score "I have pain", two patients with only slight pain excluded (patients with SCD [2]; scale 0-4, before rifaximin 4, p=0.04): 3 | median CANs after rifaximin therapy ([3]; SCD patients, 550 mg twice a day, after 2-4 weeks, range 2.63-20.25, pre-treatment median 12.65% [range 6.07-40.05], two-tailed p=0.0036): 4.55% | change in CANs after being started on rifaximin ([3]; all twelve patients, after 2-4 weeks of rifaximin): marked reduction; also recorded: dramatic reduction | CANs at the three-month time-point ([3]; two patients whose CANs were analyzed): continued to decrease | activity against Clostridium difficile (Clostridium difficile): has activities against Clostridium difficile | adverse event: increased thirst (patients with SCD [4]; both, human, in vivo, 6 months): 2 cases | adverse event: self-limiting probable viral gastroenteritis (patients with SCD [4]; culture negative, C. diff negative by PCR, 12 patients): 1 case | adverse event: slight nausea (patients with SCD [4]; human, in vivo): common | change in bilirubin (patients with SCD [4]; human, in vivo): did not show any significant change | change in haptoglobin (patients with SCD [4]; human, in vivo): did not show any significant change | change in hemoglobin (patients with SCD [4]; human, in vivo): did not show any significant change | change in serum lactate dehydrogenase (patients with SCD [4]; human, in vivo): did not show any significant change | change in white cell counts (patients with SCD [4]; human, in vivo): did not show any significant change | change in serum CD62L (serum CD62L): drop and significant drop
